Reference: US20140199690A1, “MATERIALS AND METHODS FOR HIGH-THROUGHPUT DETERMINATION OF GENOME-WIDE DNA METHYLATION PROFILE” (THE HONG KONG UNIVERSITY OF SCIENCE AND TECHNOLOGY, priority 2013, published 2014)

Legend:
HEK293T cells = test: FPDM measurement of cellular DNA methylation after 5-aza-dC treatment; type: cell-based, human; conditions: 3 days, 100 ng DNA
[1] = system: murine embryonic fibroblasts cells; conditions: 5 μM aza-dC; cited from earlier work

Nc1ncn([C@H]2C[C@H](O)[C@@H](CO)O2)c(=O)n1 [5-aza-dC, 5-aza-2′-deoxycytidine]
cellular DNA methylation measured by FPDM, relative to untreated control (HEK293T cells; 5 μM 5-aza-dC): 67.73±0.53 % of control
cellular DNA methylation measured by FPDM, relative to untreated control (HEK293T cells; 10 μM 5-aza-dC): 45.16±8.84 % of control
hypomethylation relative to the untreated control [1]: about 42%
